Where two headings read alike, the source gives them in different places. No end group written: not given here.
Assays:
Assay in all cases: biochemical
Assay type in all cases: binding
DR1 (DRB1*0101) = DR1 (DRB1*0101) (Homo sapiens, UniProt P01903+P01911, A100R/D57E/F55L/F60I/F76Y/I96L/L162R/M171V/P40L/Q125E/R42F/V115G/Y59C)
HLA-A3.2 (A*0301) = HLA-A3.2 (A*0301) (Homo sapiens, UniProt P04439)
HLA-A11 (A*1101) = HLA-A11 (A*1101) (Homo sapiens, UniProt P04439, A114D/D185E/E176A/F33Y/L180Q/S129P/T187R)
A*3301 = A*3301 (Homo sapiens, UniProt P04439, A270S/D185E/E176V/E277Q/E87N/F33T/G231S/H175R/I121M/I218V/I322F/K168Q/K210R/L300P/L318F/M331R/P217A/Q86R/Q94H/R138Q/T323A/T345S/T97I/V358M/Y195H)
A*6801 = A*6801 (Homo sapiens, UniProt P04439, A269V/D185E/E176V/E277Q/E87N/F33Y/G231S/I121M/I166T/I218V/L180W/L300P/L318F/N151K/P208A/P217A/Q86R/R169H/T345S)
A31 (A*3101) = A31 (A*3101) (Homo sapiens, UniProt P04439, A270S/D185E/E176V/E277Q/F33T/G231S/G80R/H175R/I121M/I218V/I322F/K168Q/L300P/L318F/M331R/P217A/Q94H/R138Q/T323A/T345S/T97I/V358M)

Compound | IC50 (DR1 (DRB1*0101)) | also measured
730.12 (Ac-AAAKATAAAAAA; also: non-natural residue (10)) [Peptide 730.12] | – | IC50 (DR1 (DRB1*0101); read-out: DRB1*0101): 5000 nM
824.22 (AAKTAAAFA; also: non-natural residue (46)) [Peptide 824.22] | – | IC50 (DR1 (DRB1*0101); read-out: DRB1*0101): 5000 nM
CC(C)[C@H](NC(=O)[C@@H]1CCCN1C(=O)[C@H](CCCCN)NC(=O)[C@H](CO)NC(=O)[C@H](CC(N)=O)NC(=O)[C@H](CC(N)=O)NC(=O)[C@H](CO)NC(=O)[C@H](CO)NC(=O)[C@H](Cc1ccccc1)NC(=O)[C@H](CO)NC(=O)[C@@H]1CCCN1C(=O)[C@@H](N)CCCCN)C(=O)N[C@@H](CCC(=O)O)C(=O)N[C@@H](CC(=O)O)C(=O)N[C@@H](CCCCN)C(=O)O [Peptide 9014.0037] | 22 nM | –
CC(C)[C@H](NC(=O)[C@H](CO)NC(=O)[C@@H]1CCCN1C(=O)[C@@H](N)CCCCN)C(=O)N[C@@H](CO)C(=O)N[C@@H](CO)C(=O)N[C@@H](CC(N)=O)C(=O)N[C@@H](CC(N)=O)C(=O)N[C@@H](CO)C(=O)N[C@@H](CCCCN)C(=O)N1CCC[C@H]1C(=O)N[C@H](C(=O)N[C@@H](CCC(=O)O)C(=O)N[C@@H](CC(=O)O)C(=O)N[C@@H](CCCCN)C(=O)O)C(C)C [Peptide 9014.0041] | 946 nM | –
CC(C)[C@H](NC(=O)[C@@H]1CCCN1C(=O)[C@H](CCCCN)NC(=O)[C@H](CO)NC(=O)[C@H](CC(N)=O)NC(=O)[C@H](CC(N)=O)NC(=O)[C@H](CO)NC(=O)[C@H](CO)NC(=O)[C@H](Cc1c[nH]c2ccccc12)NC(=O)[C@H](CO)NC(=O)[C@@H]1CCCN1C(=O)[C@@H](N)CCCCN)C(=O)N[C@@H](CCC(=O)O)C(=O)N[C@@H](CC(=O)O)C(=O)N[C@@H](CCCCN)C(=O)O [Peptide 9014.0042] | 29 nM | –
CC(C)[C@H](NC(=O)[C@@H]1CCCN1C(=O)[C@H](CCCCN)NC(=O)[C@H](CO)NC(=O)[C@H](CC(N)=O)NC(=O)[C@H](CC(N)=O)NC(=O)[C@H](CO)NC(=O)[C@H](CO)NC(=O)[C@H](Cc1ccc(O)cc1)NC(=O)[C@H](CO)NC(=O)[C@@H]1CCCN1C(=O)[C@@H](N)CCCCN)C(=O)N[C@@H](CCC(=O)O)C(=O)N[C@@H](CC(=O)O)C(=O)N[C@@H](CCCCN)C(=O)O [Peptide 9014.0043] | 39 nM | –
CC[C@H](C)[C@H](NC(=O)[C@@H](NC(=O)[C@H](CCCCN)NC(=O)[C@H](Cc1ccccc1)NC(=O)[C@@H](NC(=O)[C@@H](NC(=O)[C@@H](N)CCCNC(=N)N)[C@@H](C)O)[C@@H](C)O)[C@@H](C)O)C(=O)N[C@H](C(=O)N[C@H](C(=O)N[C@@H](CO)C(=O)N[C@@H](C)C(=O)N[C@@H](CCC(=O)O)C(=O)N[C@@H](CC(C)C)C(=O)N1CCC[C@H]1C(=O)N[C@@H](CCCCN)C(=O)O)C(C)C)[C@@H](C)O [Peptide 9014.0054] | 55 nM | –
CC[C@H](C)[C@H](NC(=O)[C@@H](NC(=O)[C@H](CCCCN)NC(=O)[C@H](CC(C)C)NC(=O)[C@@H](NC(=O)[C@@H](NC(=O)[C@@H](N)CCCNC(=N)N)[C@@H](C)O)[C@@H](C)O)[C@@H](C)O)C(=O)N[C@H](C(=O)N[C@H](C(=O)N[C@@H](CO)C(=O)N[C@@H](C)C(=O)N[C@@H](CCC(=O)O)C(=O)N[C@@H](CC(C)C)C(=O)N1CCC[C@H]1C(=O)N[C@@H](CCCCN)C(=O)O)C(C)C)[C@@H](C)O [Peptide 9014.0058] | 308 nM | –
CWMIDSEARPRFREL [Peptide 9014.0219] | 55 nM | –
CWMIDSEHRPRFREL [Peptide 9014.0221] | 868 nM | –
CWMIDSELRPRFREL [Peptide 9014.0223] | 433 nM | –
CWMIDSESRPRFREL [Peptide 9014.0225] | 459 nM | –
CWMIDSETRPRFREL [Peptide 9014.0226] | 371 nM | –
CWMIDSEVRPRFREL [Peptide 9014.0227] | 753 nM | –
DMKLRLAASPETHLD [Peptide 9014.0115] | 47 nM | –
DMKLRLIASPETHLD [Peptide 9014.0118] | 12 nM | –
DMKLRLLASPETHLD [Peptide 9014.0119] | 12 nM | –
DMKLRLNASPETHLD [Peptide 9014.0120] | 902 nM | –
DMKLRLPAIPETHLD [Peptide 9014.0135] | 764 nM | –
DMKLRLSASPETHLD [Peptide 9014.0121] | 823 nM | –
DMKLRLVASPETHLD [Peptide 9014.0123] | 28 nM | –
DMKYRLPASPETHLD [Peptide 9014.0131] | 776 nM | –
ETEAVEPLTPSGAMP [Peptide 9014.0141] | 51 nM | –
ETEFVEPLTPSGAMP [Peptide 9014.0142] | 25 nM | –
ETEHVEPLTPSGAMP [Peptide 9014.0143] | 62 nM | –

Compound | IC50 (DR1 (DRB1*0101)) | also measured
ETEIVEPLTPSGAMP [Peptide 9014.0144] | 481 nM | –
ETEKVEPLTPSGAMP [Peptide 9014.0145] | 21 nM | –
ETELVEPLAPSGAMP [Peptide 9014.0149] | 45 nM | –
ETELVEPLFPSGAMP [Peptide 9014.0150] | 304 nM | –
ETELVEPLHPSGAMP [Peptide 9014.0151] | 31 nM | –
ETELVEPLIPSGAMP [Peptide 9014.0152] | 55 nM | –
ETELVEPLLPSGAMP [Peptide 9014.0153] | 335 nM | –
ETELVEPLSPSGAMP [Peptide 9014.0155] | 117 nM | –
ETELVEPLVPSGAMP [Peptide 9014.0156] | 85 nM | –
ETEVVEPLTPSGAMP [Peptide 9014.0146] | 40 nM | –
ETEWVEPLTPSGAMP [Peptide 9014.0147] | 24 nM | –
ETEYVEPLTPSGAMP [Peptide 9014.0148] | 23 nM | –
GTDMKLRLAASPETH [Peptide 9014.0096] | 22 nM | –
GTDMKLRLFASPETH [Peptide 9014.0097] | 170 nM | –
GTDMKLRLHASPETH [Peptide 9014.0098] | 823 nM | –
GTDMKLRLIASPETH [Peptide 9014.0099] | 18 nM | –
GTDMKLRLLASPETH [Peptide 9014.0100] | 13 nM | –
GTDMKLRLNASPETH [Peptide 9014.0101] | 225 nM | –
GTDMKLRLSASPETH [Peptide 9014.0102] | 65 nM | –
GTDMKLRLTASPETH [Peptide 9014.0103] | 45 nM | –
GTDMKLRLVASPETH [Peptide 9014.0104] | 17 nM | –
GTDWKLRLPASPETH [Peptide 9014.0094] | 799 nM | –
GTDYKLRLPASPETH [Peptide 9014.0095] | 594 nM | –
ITDFGLARALDIDET [Peptide 9014.0183] | 25 nM | –
ITDFGLARSLDIDET [Peptide 9014.0188] | 69 nM | –

Compound | IC50 (DR1 (DRB1*0101)) | also measured
ITDIGLARLLDIDET [Peptide 9014.0177] | 907 nM | –
KEILDEAYLMAGVGS [Peptide 9014.0170] | 969 nM | –
KFFGSLAFLPESFDGDPA [Peptide 9014.0231] | 225 nM | –
KHFGSLAFLPESFDGDPA [Peptide 9014.0232] | 631 nM | –
KIFGSLAFLPESHDGDPA [9014,0255] | 813 nM | –
KIFGSLAHLPESFDGDPA [Peptide 9014.0247] | 950 nM | –
KIFGSLAILPESFDGDPA [Peptide 9014.0248] | 382 nM | –
KIFGSLAVLPESFDGDPA [Peptide 9014.0251] | 229 nM | –
KIFGSLAWLPESFDGDPA [Peptide 9014.0252] | 120 nM | –
KIFGSLAYLPESFDGDPA [Peptide 9014.0253] | 636 nM | –
KIFGSLLFLPESFDGDPA [Peptide 9014.0241] | 433 nM | –
KIFGSLNFLPESFDGDPA [Peptide 9014.0242] | 225 nM | –
KIFGSLTFLPESFDGDPA [Peptide 9014.0244] | 233 nM | –
KLFGSLAFLPESFDGDPA [Peptide 9014.0234] | 795 nM | –
KVFGSLAFLPESFDGDPA [Peptide 9014.0235] | 672 nM | –
KWFGSLAFLPESFDGDPA [Peptide 9014.0236] | 447 nM | –
KYFGSLAFLPESFDGDPA [Peptide 9014.0237] | 949 nM | –
WLIKRIRER [Peptide 9017.0122] | – | IC50 (HLA-A3.2 (A*0301)): 5160 nM; IC50 (HLA-A11 (A*1101)): > 20000 nM; IC50 (A*3301): 20 nM; IC50 (A*6801): 50 nM; IC50 (A31 (A*3101)): 85 nM
WTIAYIEYR [Peptide 9017.0116] | – | IC50 (HLA-A3.2 (A*0301)): 11300 nM; IC50 (HLA-A11 (A*1101)): 31 nM; IC50 (A*3301): 14 nM; IC50 (A*6801): 8.6 nM; IC50 (A31 (A*3101)): 97 nM
WTIAYIEYRK [Peptide 9017.0244] | – | IC50 (HLA-A3.2 (A*0301)): 4650 nM; IC50 (HLA-A11 (A*1101)): 62 nM; IC50 (A*3301): 493 nM; IC50 (A*6801): 1.2 nM; IC50 (A31 (A*3101)): 885 nM
WTYFDTYMR [Peptide 88.0346] | – | IC50 (HLA-A3.2 (A*0301)): > 20000 nM; IC50 (HLA-A11 (A*1101)): 293 nM; IC50 (A*3301): 95 nM; IC50 (A*6801): 3.8 nM; IC50 (A31 (A*3101)): 332 nM
YGFRLGFLK [Peptide 1556.27] | – | IC50 (HLA-A3.2 (A*0301)): 41 nM; IC50 (HLA-A11 (A*1101)): 1 nM; IC50 (A*3301): 839 nM; IC50 (A*6801): 16 nM; IC50 (A31 (A*3101)): 224 nM
YQNFQNADK [Peptide 99.0371] | – | IC50 (HLA-A3.2 (A*0301)): 2710 nM; IC50 (HLA-A11 (A*1101)): 177 nM; IC50 (A*3301): > 18400 nM; IC50 (A*6801): 19800 nM; IC50 (A31 (A*3101)): 44700 nM
YVMAGVGSPK [Peptide 9012.0253] | – | IC50 (HLA-A3.2 (A*0301)): 25 nM; IC50 (HLA-A11 (A*1101)): 13 nM; IC50 (A*3301): 219 nM; IC50 (A*6801): 18 nM; IC50 (A31 (A*3101)): 5730 nM

Reference: patent US9340577B2, “HLA binding motifs and peptides and their uses” (priority 1992, dated 2016)
